{
  "source": "paper PMC8934836",
  "about": "(EJNMMI Radiopharmacy and Chemistry, 2022)",
  "key": {"[1]": {"assay": "Preliminary studies on storage stability of the precursor", "assay_type": "physicochemical", "conditions": "room temperature"}, "[2]": {"target": "T1, α1β3γ2 human GABAARs (Homo sapiens, UniProt P14867+P18507)", "T1 construct": "expressed in transfected cells; host or cells: mouse fibroblasts, stably expressing; membranes prepared", "T1 sequence (P14867 28-456)": "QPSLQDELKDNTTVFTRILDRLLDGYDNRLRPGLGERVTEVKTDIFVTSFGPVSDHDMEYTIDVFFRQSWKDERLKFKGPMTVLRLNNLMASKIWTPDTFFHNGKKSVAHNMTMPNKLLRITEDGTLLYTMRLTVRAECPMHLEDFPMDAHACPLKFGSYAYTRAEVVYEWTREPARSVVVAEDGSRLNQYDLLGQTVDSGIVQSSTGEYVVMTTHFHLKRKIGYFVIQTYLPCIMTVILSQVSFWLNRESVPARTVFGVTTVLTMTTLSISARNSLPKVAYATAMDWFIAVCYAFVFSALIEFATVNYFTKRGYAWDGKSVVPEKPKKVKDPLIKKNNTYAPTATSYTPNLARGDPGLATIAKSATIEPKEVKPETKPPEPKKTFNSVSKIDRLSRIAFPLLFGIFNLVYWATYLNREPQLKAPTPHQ", "T1 sequence (P28472 26-473 partner)": "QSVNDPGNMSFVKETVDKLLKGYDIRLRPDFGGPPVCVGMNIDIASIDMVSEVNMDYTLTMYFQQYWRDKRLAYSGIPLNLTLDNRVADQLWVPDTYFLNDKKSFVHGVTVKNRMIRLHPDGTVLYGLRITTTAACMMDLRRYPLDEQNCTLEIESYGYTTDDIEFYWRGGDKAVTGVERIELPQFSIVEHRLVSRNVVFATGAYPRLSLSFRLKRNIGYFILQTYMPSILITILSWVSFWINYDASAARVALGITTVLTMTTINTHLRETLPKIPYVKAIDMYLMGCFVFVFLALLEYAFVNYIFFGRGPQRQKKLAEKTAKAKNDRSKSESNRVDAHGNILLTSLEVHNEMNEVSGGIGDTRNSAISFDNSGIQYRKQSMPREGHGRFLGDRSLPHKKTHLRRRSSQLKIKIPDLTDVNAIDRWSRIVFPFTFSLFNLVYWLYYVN", "T1 sequence (P18507 40-475)": "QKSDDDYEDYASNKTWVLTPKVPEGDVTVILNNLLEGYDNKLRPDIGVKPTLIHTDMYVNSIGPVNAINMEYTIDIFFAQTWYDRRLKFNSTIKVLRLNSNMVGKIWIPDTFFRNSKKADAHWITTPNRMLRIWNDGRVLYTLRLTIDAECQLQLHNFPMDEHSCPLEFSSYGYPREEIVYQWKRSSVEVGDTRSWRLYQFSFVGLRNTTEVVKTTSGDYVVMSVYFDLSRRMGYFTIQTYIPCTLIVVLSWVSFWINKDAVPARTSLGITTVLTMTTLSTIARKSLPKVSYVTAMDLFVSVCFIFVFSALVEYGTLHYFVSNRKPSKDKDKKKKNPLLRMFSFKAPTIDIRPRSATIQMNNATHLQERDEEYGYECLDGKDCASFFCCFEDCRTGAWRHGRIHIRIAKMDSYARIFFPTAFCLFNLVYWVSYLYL", "assay": "[^3H]flumazenil in vitro binding assay, α1β3γ2", "experimental": "(§1) These samples were serially diluted in 100% DMSO in half-log units such that when 5 µl were added into a total assay volume of 500 µl, the final DMSO concentration in the assay was 1%.\n(§2) In brief, mouse fibroblasts stably expressing the four subtypes of human GABAARs that contain a benzodiazepine binding site (i.e., α1-, α2-, α3- and α5β3γ2) were grown, harvested, and membranes were prepared and frozen at -80 °C until required. On the day of the assay, membranes were thawed and reconstituted in assay buffer (75 mM Tris.Cl, pH 7.4, 1 mM EDTA, 12.5 mM MgCl2) at a concentration of 101 µg/ml for α1β3γ2 and 51 µg/ml for α2-, α3- and α5β3γ2 membrane. […] Incubations were performed for 1 h at room temperature before being terminated by filtration and rapid washing (2 × 10 ml of ice-cold 50 mM Tris.Cl, pH 7.4 buffer) over Whatman GF/B filters using a Brandel cell harvester. Filters were then placed in scintillation vials, 4 ml of scintillation fluid added, and radioactivity was counted on a Tricarb 2900 scintillation counter."}, "[3]": {"target": "T2, α3β3γ2 human GABAARs (Homo sapiens, UniProt P18507+P34903)", "T2 construct": "expressed in transfected cells; host or cells: mouse fibroblasts, stably expressing; membranes prepared", "T2 sequence (P34903 29-492)": "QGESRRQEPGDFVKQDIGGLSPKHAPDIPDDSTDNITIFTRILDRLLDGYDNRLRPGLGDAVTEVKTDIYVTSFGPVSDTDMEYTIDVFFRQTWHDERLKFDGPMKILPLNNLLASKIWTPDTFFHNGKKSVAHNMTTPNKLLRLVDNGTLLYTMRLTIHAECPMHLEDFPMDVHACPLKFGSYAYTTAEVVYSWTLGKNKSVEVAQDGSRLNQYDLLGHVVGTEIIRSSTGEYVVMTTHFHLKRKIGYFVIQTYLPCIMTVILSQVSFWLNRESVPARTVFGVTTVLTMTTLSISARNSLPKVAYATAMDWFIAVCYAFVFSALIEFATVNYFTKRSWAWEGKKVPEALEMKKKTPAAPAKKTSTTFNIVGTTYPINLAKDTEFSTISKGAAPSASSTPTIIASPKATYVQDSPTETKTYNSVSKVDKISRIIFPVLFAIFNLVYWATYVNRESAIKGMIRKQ", "T2 sequence (P28472 26-473 partner)": "as the sequence (P28472 26-473 partner) above", "T2 sequence (P18507 40-475)": "as the sequence (P18507 40-475) above", "assay": "[^3H]flumazenil in vitro binding assay, α3β3γ2", "conditions": "read-out: Affinity at human GABAAR subtypes, α3β3γ2 (mean Ki)", "experimental": "as §1, §2"}, "[4]": {"target": "T3, α2β3γ2 human GABAARs (Homo sapiens, UniProt P18507+P47869)", "T3 construct": "expressed in transfected cells; host or cells: mouse fibroblasts, stably expressing; membranes prepared", "T3 sequence (P47869 29-451)": "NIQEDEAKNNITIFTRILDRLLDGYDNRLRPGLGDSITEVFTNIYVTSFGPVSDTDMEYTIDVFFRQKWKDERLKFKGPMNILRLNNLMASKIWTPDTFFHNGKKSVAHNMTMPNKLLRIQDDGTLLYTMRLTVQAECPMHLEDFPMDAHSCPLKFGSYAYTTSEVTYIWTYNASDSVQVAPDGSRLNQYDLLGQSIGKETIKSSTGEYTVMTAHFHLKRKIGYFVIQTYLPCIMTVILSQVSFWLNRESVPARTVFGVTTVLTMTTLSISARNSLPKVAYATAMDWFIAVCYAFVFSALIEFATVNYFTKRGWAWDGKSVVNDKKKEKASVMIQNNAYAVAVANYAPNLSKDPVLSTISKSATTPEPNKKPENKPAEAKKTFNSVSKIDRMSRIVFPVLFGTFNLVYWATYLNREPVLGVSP", "T3 sequence (P28472 26-473 partner)": "as the sequence (P28472 26-473 partner) above", "T3 sequence (P18507 40-475)": "as the sequence (P18507 40-475) above", "assay": "[^3H]flumazenil in vitro binding assay, α2β3γ2", "conditions": "read-out: Affinity at human GABAAR subtypes, α2β3γ2 (mean Ki)", "experimental": "as §1, §2"}, "[5]": {"target": "T4, α5β3γ2 human GABAARs (Homo sapiens, UniProt P18507+P31644)", "T4 construct": "expressed in transfected cells; host or cells: mouse fibroblasts, stably expressing; membranes prepared", "T4 sequence (P31644 32-462)": "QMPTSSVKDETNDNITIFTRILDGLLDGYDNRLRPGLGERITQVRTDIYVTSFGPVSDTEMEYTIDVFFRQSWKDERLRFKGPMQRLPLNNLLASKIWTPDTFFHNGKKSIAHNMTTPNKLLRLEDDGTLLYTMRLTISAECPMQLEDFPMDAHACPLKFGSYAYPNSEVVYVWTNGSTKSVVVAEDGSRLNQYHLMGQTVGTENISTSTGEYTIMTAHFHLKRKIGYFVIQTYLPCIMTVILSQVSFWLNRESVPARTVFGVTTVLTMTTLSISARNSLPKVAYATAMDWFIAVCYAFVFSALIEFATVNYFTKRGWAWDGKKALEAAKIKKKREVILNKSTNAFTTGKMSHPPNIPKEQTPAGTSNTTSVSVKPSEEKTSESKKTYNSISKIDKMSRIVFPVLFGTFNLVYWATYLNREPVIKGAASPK", "T4 sequence (P28472 26-473 partner)": "as the sequence (P28472 26-473 partner) above", "T4 sequence (P18507 40-475)": "as the sequence (P18507 40-475) above", "assay": "[^3H]flumazenil in vitro binding assay, α5β3γ2", "experimental": "as §1, §2"}, "[6]": {"conditions": "mouse fibroblast membranes, 4 nM [^3H]flumazenil, Cheng-Prusoff, mean ± SEM of n = 4 separate assays"}},
  "note": "Like-named read-outs stand apart in the source and are kept apart here.",
  "data": [
    {"smiles": "CCOC(=O)c1ncn2c1CN(C)C(=O)c1cc(B3OC(C)(C)C(C)(C)O3)ccc1-2", "note": "[FMZ-BPin, Ethyl 5-methyl-6-oxo-8(4,4,5,5-tetramethyl-1,3,2-dioxaborolan-2-yl)-5,6-dihydro-4H-benzo[f]imidazo[1,5-a][1,4]diazepine-3-carboxylate]", "values": [
      {"measurement": "Stable for prolonged storage", "setting": "[1]", "result": "> 9", "unit": "months"}
    ]},
    {"smiles": "CCOC(=O)c1ncn2c1CN(C)C(=O)c1ccccc1-2", "note": "[HMZ, ethyl 5-methyl-6-oxo-5,6-dihydro-4H-benzo[f]imidazo[1,5-a][1,4]diazepine-3-carboxylate]", "values": [
      {"measurement": "Ki", "setting": "[2]", "result": "24 ± 3", "unit": "nM"},
      {"measurement": "Ki", "setting": "[3]", "result": "11 ± 4", "unit": "nM"},
      {"measurement": "Ki", "setting": "[4]", "result": "15 ± 2", "unit": "nM"},
      {"measurement": "Ki", "setting": "[5]", "result": "1.7 ± 0.2", "unit": "nM"}
    ]},
    {"smiles": "CCOC(=O)c1ncn2c1CN(C)C(=O)c1cc(O)ccc1-2", "note": "[OHMZ, Flumazenil impurity B]", "values": [
      {"measurement": "Ki", "setting": "[2]; mouse fibroblast membranes, 4 nM [^3H]flumazenil, Cheng-Prusoff, mean ± SEM of n = 4 separate assays, read-out: Affinity at human GABAAR subtypes, α1β3γ2 (mean Ki)", "result": "5.4 ± 0.6", "unit": "nM"},
      {"measurement": "Ki", "setting": "[3]; [6]", "result": "2.7 ± 0.9", "unit": "nM"},
      {"measurement": "Ki", "setting": "[4]; [6]", "result": "7.3 ± 1.5", "unit": "nM"},
      {"measurement": "Ki", "setting": "[5]; mouse fibroblast membranes, 4 nM [^3H]flumazenil, Cheng-Prusoff, mean ± SEM of n = 4 separate assays, read-out: Affinity at human GABAAR subtypes, α5β3γ2 (mean Ki)", "result": "0.5 ± 0.1", "unit": "nM"}
    ]}
  ]
}
